Results from US4916214A, “Cationic complexes of technetium-99m” (Amersham International plc., priority 1987, dated 1990).
Like-named read-outs stand apart in the source and are kept apart here.

Tests used:
[1] = rat, in vivo
Experimental: In vivo biodistribution: 0.1 ml Tc^99m prep was injected i.v. into a laterial tail vein of 6 anaesthetised rats.
At 2 minutes and 60 minutes post-injection, 3 rats were sacrificed by decapitation, bled from the neck and dissected. The following organs were removed at dissection: kidney; bladder(+ urine), lung, liver, spleen, stomach, small intestine, large intestine, brain (weighed), heart (weighed), thyroid and samples of blood (weighed) and muscle (weighed), the residual carcass and the tail (injection site). Subsequently samples were counted in an automatic twin crystal gamma counter.
(§1) Percentage biodistribution of injected material was calculated (after correction for background) for all organs using the formula: [formula]
(§2) Since only samples of muscle and blood were taken, the percentage in these tissues was calculated assuming blood and muscle to represent 5.8 and 43% of total animal weight respectively using the formula: [formula]

[2] = Animal biodistribution of 99mTc complexes in guinea pigs; type: in vivo, guinea pig;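 note: Heart, liver and kidney plus urine values are percent of the injected material, background-corrected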
Experimental: as §1, §2
Since only samples of muscle and blood were taken, the percentage in these tissues was calculated assuming blood and muscle to represent 5.8 and 43% of total animal weight respectively using the formula: [formula] where CF= 0.058 for blood

[3] = Table VIII, [TcL3 ]^+ complex of the ligand, guinea pigs, 2 min p.i.
[4] = Table VIII, [TcL3 ]^+ complex of the ligand, guinea pigs, 60 min p.i.
[5] = from Table VIII, [TcL3 ]^+, guinea pigs, 60'
[6] = guinea pig, 2 min p.i. in vivo, mean
[7] = guinea pig, 60 min p.i. in vivo, mean

SMILES: CP(C)CC1(CP(C)C)CCOCC1 [PL49]
- HEART/BLOOD ([1]; 2 min): 1.13
- HEART/LIVER ([1]; 2 min): 0.11
- Heart ([1]; 2 min): 0.32
- HEART/BLOOD ([1]; 60 min): 131
- HEART/LIVER ([1]; 60 min): 0.24
- Heart ([1]; 60 min): 0.18

SMILES: COCP(C)CCP(C)COC (stereo not shown) [Example 1, MeP(CH2 OMe)-(CH2)2 -(Me)P(CH2 OMe)]
- Heart [2, 3]: 0.98 % injected dose
- Heart/Blood Counts/Gram ratio [2, 3]: 1.63
- Heart/Liver Counts/Gram ratio [2, 3]: 0.82
- Heart/Muscle Counts/Gram ratio [2, 3]: 8.18
- Liver [2, 3]: 24.0 % injected dose
- Heart [2, 4]: 0.83 % injected dose
- Heart/Blood Counts/Gram ratio [2, 4]: 10.5
- Heart/Liver Counts/Gram ratio [2, 4]: 0.72
- Heart/Muscle Counts/Gram ratio [2, 4]: 4.29
- Liver [2, 4]: 13.3 % injected dose
- heart uptake and retention compared with dmpe complex ([2]; from Table VIII, [TcL3 ]^+, guinea pigs, 2' and 60'): increased heart uptake and retention at 2' and 60'
- heart/blood ratio compared with dmpe complex [2, 5]: better
- heart/liver ratio compared with dmpe complex [2, 5]: better
- heart/muscle ratio compared with dmpe complex [2, 5]: better
- liver retention compared with dmpe complex [2, 5]: much lower liver retention at 60'
- heart uptake and retention compared with dmpe complex [1]: significantly higher heart uptake and retention at 2' and 60'
- heart/liver ratio compared with dmpe complex [1]: significantly increased heart/liver ratio at 60'
- liver retention compared with dmpe complex [1]: reduced liver retention at 60'
- Heart ([1]; 2 min): 1.71 % injected dose
- Heart/Blood Counts/Gram ratio ([1]; 2 min): 4.19
- Heart/Liver Counts/Gram ratio ([1]; 2 min): 1.81
- Heart/Muscle Counts/Gram ratio ([1]; 2 min): 6.61
- Liver ([1]; 2 min): 12.6 % injected dose
- Heart ([1]; 60 min): 1.42 % injected dose
- Heart/Blood Counts/Gram ratio ([1]; 60 min): 25.7
- Heart/Liver Counts/Gram ratio ([1]; 60 min): 10.8
- Heart/Muscle Counts/Gram ratio ([1]; 60 min): 5.46
- Liver ([1]; 60 min): 1.53 % injected dose

SMILES: COCCOCC(COC)(CP(C)C)CP(C)C [PL46]
- HEART/BLOOD ([1]; 2 min): 14.0
- HEART/LIVER ([1]; 2 min): 1.82
- Heart ([1]; 2 min): 1.87
- HEART/BLOOD ([1]; 60 min): 345
- HEART/LIVER ([1]; 60 min): 17.1
- Heart ([1]; 60 min): 1.77

SMILES: COCC(COC)(CP(C)C)CP(C)C.COCC(COC)(CP(C)C)CP(C)C.COCC(COC)(CP(C)C)CP(C)C.[99Tc+] [Example 18]
- Blood [2, 6]: 5.14 % injected dose/organ
- Heart [2, 6]: 1.2 % injected dose/organ
- Heart/Blood Counts/Gram ratio [2, 6]: 5.7
- Heart/Liver Counts/Gram ratio [2, 6]: 1.12
- Heart/Lung Counts/Gram ratio [2, 6]: 0.6
- Heart/Muscle Counts/Gram ratio [2, 6]: 6.5
- Kidney + Urine [2, 6]: 14.5 % injected dose/organ
- Liver [2, 6]: 17.3 % injected dose/organ
- Liver + GI [2, 6]: 36.9 % injected dose/organ
- Lung [2, 6]: 1.65 % injected dose/organ
- Muscle [2, 6]: 27.4 % injected dose/organ
- Blood [2, 7]: 0.46 % injected dose/organ
- Heart [2, 7]: 1.06 % injected dose/organ
- Heart/Blood Counts/Gram ratio [2, 7]: 56.1
- Heart/Liver Counts/Gram ratio [2, 7]: 5.63
- Heart/Lung Counts/Gram ratio [2, 7]: 1.9
- Heart/Muscle Counts/Gram ratio [2, 7]: 6.14
- Kidney + Urine [2, 7]: 15.0 % injected dose/organ
- Liver [2, 7]: 2.6 % injected dose/organ
- Liver + GI [2, 7]: 53.3 % injected dose/organ
- Lung [2, 7]: 0.56 % injected dose/organ
- Muscle [2, 7]: 23.7 % injected dose/organ
- Blood ([1]; 2 min): 2.85 injected dose/organ
- Heart ([1]; 2 min): 1.87 injected dose/organ
- Heart/Blood Counts/Gram ratio ([1]; 2 min): 10.4
- Heart/Liver Counts/Gram ratio ([1]; 2 min): 1.68
- Heart/Lung Counts/Gram ratio ([1]; 2 min): 1.2
- Heart/Muscle Counts/Gram ratio ([1]; 2 min): 8.45
- Kidney + Urine ([1]; 2 min): 10.6 injected dose/organ
- Liver ([1]; 2 min): 16.3 injected dose/organ
- Liver + GI ([1]; 2 min): 36.4 injected dose/organ
- Lung ([1]; 2 min): 2.59 injected dose/organ
- Muscle ([1]; 2 min): 26.3 injected dose/organ
- Blood ([1]; 60 min): 0.14 injected dose/organ
- Heart ([1]; 60 min): 1.41 injected dose/organ
- Heart/Blood Counts/Gram ratio ([1]; 60 min): 152
- Heart/Liver Counts/Gram ratio ([1]; 60 min): 8.42
- Heart/Lung Counts/Gram ratio ([1]; 60 min): 3.2
- Heart/Muscle Counts/Gram ratio ([1]; 60 min): 8.36
- Kidney + Urine ([1]; 60 min): 12.2 injected dose/organ
- Liver ([1]; 60 min): 2.45 injected dose/organ
- Liver + GI ([1]; 60 min): 49.92 injected dose/organ
- Lung ([1]; 60 min): 0.75 injected dose/organ
- Muscle ([1]; 60 min): 19.4 injected dose/organ

SMILES: CCOCCOCCOC(CP(C)C)CP(C)C [PL41]
- HEART/BLOOD ([1]; 2 min): 7.83
- HEART/LIVER ([1]; 2 min): 0.83
- Heart ([1]; 2 min): 1.08
- HEART/BLOOD ([1]; 60 min): 122
- HEART/LIVER ([1]; 60 min): 4.65
- Heart ([1]; 60 min): 1.02

SMILES: COC(CC(OC)P(C)C)P(C)C.COC(CC(OC)P(C)C)P(C)C.O=[N][99Tc+][Cl].[Cl-] (stereo not shown) [Example 17]
- Blood [2, 7]: 1.31 % injected dose/organ
- Heart [2, 7]: 0.70 % injected dose/organ
- Heart/Blood Counts/Gram ratio [2, 7]: 13.9
- Heart/Liver Counts/Gram ratio [2, 7]: 4.21
- Heart/Lung Counts/Gram ratio [2, 7]: 1.3
- Heart/Muscle Counts/Gram ratio [2, 7]: 6.81
- Kidney + Urine [2, 7]: 17.6 % injected dose/organ
- Liver [2, 7]: 2.76 % injected dose/organ
- Liver + GI [2, 7]: 57.1 % injected dose/organ
- Lung [2, 7]: 0.55 % injected dose/organ
- Muscle [2, 7]: 1.60 % injected dose/organ
- Blood ([1]; 60 min): 0.44 % injected dose/organ
- Heart ([1]; 60 min): 1.23 % injected dose/organ
- Heart/Blood Counts/Gram ratio ([1]; 60 min): 39.1
- Heart/Liver Counts/Gram ratio ([1]; 60 min): 2.47
- Heart/Lung Counts/Gram ratio ([1]; 60 min): 2.7
- Heart/Muscle Counts/Gram ratio ([1]; 60 min): 5.51
- Kidney + Urine ([1]; 60 min): 15.8 % injected dose/organ
- Liver ([1]; 60 min): 6.03 % injected dose/organ
- Liver + GI ([1]; 60 min): 47.9 % injected dose/organ
- Lung ([1]; 60 min): 0.72 % injected dose/organ
- Muscle ([1]; 60 min): 22.9 % injected dose/organ

SMILES: COC(CC(OC)P(C)C)P(C)C (stereo not shown) [PL30]
- HEART/BLOOD ([1]; 2 min): 2.78
- HEART/LIVER ([1]; 2 min): 5.01
- Heart ([1]; 2 min): 1.30

SMILES: COCP(C)CCP(C)C (stereo not shown) [Example 2, Me2 P-(CH2)2 -P(Me) (CH2 OMe)]
- Heart [2, 3]: 0.96 % injected dose
- Heart/Blood Counts/Gram ratio [2, 3]: 1.59
- Heart/Liver Counts/Gram ratio [2, 3]: 0.51
- Heart/Muscle Counts/Gram ratio [2, 3]: 9.19
- Liver [2, 3]: 24.85 % injected dose
- Heart [2, 4]: 0.43 % injected dose
- Heart/Blood Counts/Gram ratio [2, 4]: 7.82
- Heart/Liver Counts/Gram ratio [2, 4]: 0.30
- Heart/Muscle Counts/Gram ratio [2, 4]: 4.60
- Liver [2, 4]: 26.13 % injected dose
- general trend of biodistribution compared with dmpe complexes [1]: show the same general trend
- Heart ([1]; 2 min): 0.96 % injected dose
- Heart/Blood Counts/Gram ratio ([1]; 2 min): 9.05
- Heart/Liver Counts/Gram ratio ([1]; 2 min): 0.57
- Heart/Muscle Counts/Gram ratio ([1]; 2 min): 4.99
- Liver ([1]; 2 min): 20.45 % injected dose
- Heart ([1]; 60 min): 0.94 % injected dose
- Heart/Blood Counts/Gram ratio ([1]; 60 min): 49.63
- Heart/Liver Counts/Gram ratio ([1]; 60 min): 7.26
- Heart/Muscle Counts/Gram ratio ([1]; 60 min): 4.17
- Liver ([1]; 60 min): 1.62 % injected dose

SMILES: COC(CC(OC)P(C)C)P(C)C.COC(CC(OC)P(C)C)P(C)C.COC(CC(OC)P(C)C)P(C)C.[99Tc+] (stereo not shown) [Example 16]
- Blood [2, 7]: 2.03 % injected dose/organ
- Heart [2, 7]: 0.57 % injected dose/organ
- Heart/Blood Counts/Gram ratio [2, 7]: 7.08
- Heart/Liver Counts/Gram ratio [2, 7]: 0.94
- Heart/Lung Counts/Gram ratio [2, 7]: 0.4
- Heart/Muscle Counts/Gram ratio [2, 7]: 3.98
- Kidney + Urine [2, 7]: 23.3 % injected dose/organ
- Liver [2, 7]: 10.0 % injected dose/organ
- Liver + GI [2, 7]: 48.6 % injected dose/organ
- Lung [2, 7]: 1.01 % injected dose/organ
- Muscle [2, 7]: 20.7 % injected dose/organ
- Blood ([1]; 2 min): 7.15 % injected dose/organ
- Heart ([1]; 2 min): 1.30 % injected dose/organ
- Heart/Blood Counts/Gram ratio ([1]; 2 min): 2.78
- Heart/Liver Counts/Gram ratio ([1]; 2 min): 1.14
- Heart/Lung Counts/Gram ratio ([1]; 2 min): 0.5
- Heart/Muscle Counts/Gram ratio ([1]; 2 min): 5.01
- Kidney + Urine ([1]; 2 min): 9.33 % injected dose/organ
- Liver ([1]; 2 min): 17.4 % injected dose/organ
- Liver + GI ([1]; 2 min): 31.5 % injected dose/organ
- Lung ([1]; 2 min): 3.57 % injected dose/organ
- Muscle ([1]; 2 min): 29.1 % injected dose/organ
- Blood ([1]; 60 min): 0.64 % injected dose/organ
- Heart ([1]; 60 min): 0.99 % injected dose/organ
- Heart/Blood Counts/Gram ratio ([1]; 60 min): 22.1
- Heart/Liver Counts/Gram ratio ([1]; 60 min): 1.64
- Heart/Lung Counts/Gram ratio ([1]; 60 min): 0.7
- Heart/Muscle Counts/Gram ratio ([1]; 60 min): 6.4
- Kidney + Urine ([1]; 60 min): 25.7 % injected dose/organ
- Liver ([1]; 60 min): 8.81 % injected dose/organ
- Liver + GI ([1]; 60 min): 43.3 % injected dose/organ
- Lung ([1]; 60 min): 1.79 % injected dose/organ
- Muscle ([1]; 60 min): 17.1 % injected dose/organ

SMILES: CP(C)CC1(CP(C)C)COC(C)(C)OC1 [PL35]
- HEART/BLOOD ([1]; 2 min): 4.07
- HEART/LIVER ([1]; 2 min): 0.46
- Heart ([1]; 2 min): 0.88
- HEART/BLOOD ([1]; 60 min): 35.3
- HEART/LIVER ([1]; 60 min): 1.65
- Heart ([1]; 60 min): 0.55
